Data from ChEMBL document CHEMBL5036321, “Sinularamides A-G, Terpenoid-Derived Spermidine and Spermine Conjugates with Casitas B-Lineage Lymphoma Proto-Oncogene B (Cbl-b) Inhibitory Activities from a Sinularia sp. Soft Coral” (J Nat Prod, 2021).
pIC50: −log10 of the molar value.

Target: E3 ubiquitin-protein ligase CBL-B (Homo sapiens, UniProt Q13191)
Experiment: Inhibition of Cbl-b (unknown origin) assessed as inhibition of Cbl-b dependent auto-ubiquitination in presence of ATP measured after 13 hrs by fluorescence microplate reader assay

E3 ubiquitin-protein ligase CBL-B, sequence (Q13191 whole entry): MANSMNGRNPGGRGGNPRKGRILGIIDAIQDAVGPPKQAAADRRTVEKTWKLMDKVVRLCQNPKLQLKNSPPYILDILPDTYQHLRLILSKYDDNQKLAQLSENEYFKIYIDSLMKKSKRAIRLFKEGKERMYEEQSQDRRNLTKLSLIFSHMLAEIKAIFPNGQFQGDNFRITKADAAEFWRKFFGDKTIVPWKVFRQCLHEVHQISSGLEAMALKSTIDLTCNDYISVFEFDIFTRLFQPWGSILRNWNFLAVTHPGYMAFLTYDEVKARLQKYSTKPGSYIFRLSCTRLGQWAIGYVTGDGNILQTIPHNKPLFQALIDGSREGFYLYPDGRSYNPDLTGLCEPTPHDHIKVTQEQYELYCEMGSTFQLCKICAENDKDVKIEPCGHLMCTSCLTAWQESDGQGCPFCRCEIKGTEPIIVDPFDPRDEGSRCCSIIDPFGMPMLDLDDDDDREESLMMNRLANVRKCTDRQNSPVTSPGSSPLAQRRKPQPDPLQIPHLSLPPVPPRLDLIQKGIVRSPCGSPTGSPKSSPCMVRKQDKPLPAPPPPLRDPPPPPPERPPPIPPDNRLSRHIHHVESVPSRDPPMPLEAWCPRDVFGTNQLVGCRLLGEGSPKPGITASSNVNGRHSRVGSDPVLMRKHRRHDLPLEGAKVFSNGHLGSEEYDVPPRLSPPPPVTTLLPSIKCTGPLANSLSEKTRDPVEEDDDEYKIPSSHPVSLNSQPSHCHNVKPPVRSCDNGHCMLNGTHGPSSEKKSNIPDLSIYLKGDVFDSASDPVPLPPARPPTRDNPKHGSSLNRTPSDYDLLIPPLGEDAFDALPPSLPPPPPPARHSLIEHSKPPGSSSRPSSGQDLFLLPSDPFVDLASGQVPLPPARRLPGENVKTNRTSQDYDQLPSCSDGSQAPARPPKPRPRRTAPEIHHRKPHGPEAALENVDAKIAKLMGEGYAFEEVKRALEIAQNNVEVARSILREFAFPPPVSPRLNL

pIC50: 5.19
SMILES: CC(C)=CCC/C(C)=C/CC/C(C)=C/CC/C(C)=C/C(=O)NCCC[N+](C)(C)CCCC[N+](C)(C)CCCNC(=O)/C=C(\C)CC/C=C(\C)CC/C=C(\C)CCC=C(C)C
